Where a name gives a salt, the structure may show the parent alone.

As a reminder, the IC50 is the concentration at which inhibition is half-maximal. A low value points to greater potency.

This assay concerns the target T1, High Temperature requirement A (LmHtrA) (Listeria monocytogenes, UniProt Q8YA67).
T1 sequence (Q8YA67 1-500): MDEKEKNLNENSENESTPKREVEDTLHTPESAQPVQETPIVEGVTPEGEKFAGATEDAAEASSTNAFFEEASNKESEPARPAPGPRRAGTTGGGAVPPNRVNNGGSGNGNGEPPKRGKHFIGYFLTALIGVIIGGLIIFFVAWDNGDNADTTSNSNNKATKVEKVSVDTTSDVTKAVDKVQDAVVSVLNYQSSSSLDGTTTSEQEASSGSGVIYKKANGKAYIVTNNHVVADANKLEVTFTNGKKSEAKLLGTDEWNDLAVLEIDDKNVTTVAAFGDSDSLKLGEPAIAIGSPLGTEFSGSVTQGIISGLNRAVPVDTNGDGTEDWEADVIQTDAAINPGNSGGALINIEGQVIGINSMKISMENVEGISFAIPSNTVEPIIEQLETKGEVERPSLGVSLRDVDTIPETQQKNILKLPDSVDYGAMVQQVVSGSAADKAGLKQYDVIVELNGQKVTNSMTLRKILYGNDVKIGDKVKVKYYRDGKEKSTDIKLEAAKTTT
The assay is described as follows: azo-casein cleavage, spectrophotometric. Type of assay: biochemical.
`N=C(N)c1ccc2cc(OC(=O)c3ccc(N=C(N)N)cc3)ccc2c1` [NM, Nafamostat mesylate] displayed an IC50 of 6.6 ± 0.4 µM. `CN(C)C(=O)COC(=O)Cc1ccc(OC(=O)c2ccc(NC(=N)N)cc2)cc1` [CM, Camostat mesylate] displayed a half-maximal inhibitory concentration (IC50) of 152 ± 7.5 µM. `CCOC(=O)c1ccc(OC(=O)CCCCCNC(=N)N)cc1` [GM, Gabexate mesylate] returned an IC50 of 80.6 ± 8.5 µM. Against the preceding compound, the IC50 is about 1.9-fold lower.
